In PubChem BioAssay (NCI):
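A five-concentration, 48-hour dose response in 96-well plates underlies each endpoint, interpolated linearly between surrounding concentrations. GI50: concentration for 50% inhibition of growth. TGI marks complete inhibition of growth.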

Assays:
Experiment in all cases: inhibition of tumour cell growth, NCI panel, 48 h
NCI-H226 lung = test system: NCI-H226 lung
NCI-H23 lung = test system: NCI-H23 lung
NCI-H460 lung = test system: NCI-H460 lung
NCI-H522 lung = test system: NCI-H522 lung
NCI/ADR-RES ovarian = test system: NCI/ADR-RES ovarian
OVCAR-3 ovarian = test system: OVCAR-3 ovarian
OVCAR-4 ovarian = test system: OVCAR-4 ovarian
OVCAR-5 ovarian = test system: OVCAR-5 ovarian
OVCAR-8 ovarian = test system: OVCAR-8 ovarian
PC-3 prostate = test system: PC-3 prostate
RPMI-8226 leukemia = test system: RPMI-8226 leukemia
RXF 393 renal = test system: RXF 393 renal
SF-268 CNS = test system: SF-268 CNS
SF-295 CNS = test system: SF-295 CNS
SF-539 CNS = test system: SF-539 CNS
SK-MEL-2 melanoma = test system: SK-MEL-2 melanoma
SK-MEL-28 melanoma = test system: SK-MEL-28 melanoma
SK-MEL-5 melanoma = test system: SK-MEL-5 melanoma
SK-OV-3 ovarian = test system: SK-OV-3 ovarian
SN12C renal = test system: SN12C renal
SNB-19 CNS = test system: SNB-19 CNS
SNB-75 CNS = test system: SNB-75 CNS
SR leukemia = test system: SR leukemia
SW-620 colon = test system: SW-620 colon
T-47D breast = test system: T-47D breast
TK-10 renal = test system: TK-10 renal
U251 CNS = test system: U251 CNS
UACC-257 melanoma = test system: UACC-257 melanoma
UACC-62 melanoma = test system: UACC-62 melanoma
UO-31 renal = test system: UO-31 renal

Cc1[nH]nc2ncc(C#Cc3cncc(C(=O)Nc4ccc(CN5CCN(C)CC5)c(C(F)(F)F)c4)c3)cc12
TGI (NCI-H226 lung): 953 nM | GI50 (NCI-H23 lung): 439 nM | TGI (NCI-H23 lung): > 100000 nM | GI50 (NCI-H460 lung): 147 nM | TGI (NCI-H460 lung): 4640 nM | GI50 (NCI-H522 lung): 124 nM | TGI (NCI-H522 lung): 4730 nM | GI50 (NCI/ADR-RES ovarian): 5770 nM | TGI (NCI/ADR-RES ovarian): > 25300 nM | GI50 (OVCAR-3 ovarian): 401 nM | GI50 (OVCAR-4 ovarian): 582 nM | GI50 (OVCAR-5 ovarian): 418 nM | GI50 (OVCAR-8 ovarian): 413 nM | GI50 (PC-3 prostate): 330 nM | TGI (PC-3 prostate): > 21800 nM | GI50 (RPMI-8226 leukemia): 426 nM | GI50 (RXF 393 renal): 75.2 nM | TGI (RXF 393 renal): 600 nM | GI50 (SF-268 CNS): 289 nM | GI50 (SF-295 CNS): 286 nM | GI50 (SF-539 CNS): 158 nM | TGI (SF-539 CNS): 1080 nM | GI50 (SK-MEL-2 melanoma): 85.2 nM | TGI (SK-MEL-2 melanoma): 352 nM | GI50 (SK-MEL-28 melanoma): 212 nM | TGI (SK-MEL-28 melanoma): 3740 nM | GI50 (SK-MEL-5 melanoma): 308 nM | TGI (SK-MEL-5 melanoma): 12500 nM | GI50 (SK-OV-3 ovarian): 174 nM | TGI (SK-OV-3 ovarian): > 51800 nM | GI50 (SN12C renal): 299 nM | TGI (SN12C renal): 11200 nM | GI50 (SNB-19 CNS): 1030 nM | TGI (SNB-19 CNS): 13200 nM | GI50 (SNB-75 CNS): 491 nM | TGI (SNB-75 CNS): 13600 nM | GI50 (SR leukemia): 140 nM | GI50 (SW-620 colon): 183 nM | TGI (SW-620 colon): 4380 nM | GI50 (T-47D breast): 508 nM | TGI (T-47D breast): > 61900 nM | GI50 (TK-10 renal): 441 nM | GI50 (U251 CNS): 460 nM | TGI (U251 CNS): 28100 nM | GI50 (UACC-257 melanoma): 317 nM | GI50 (UACC-62 melanoma): 95.9 nM | TGI (UACC-62 melanoma): 704 nM | GI50 (UO-31 renal): 326 nM | TGI (UO-31 renal): 1980 nM
